2 compounds from US20190343860A1 (Saint Louis University, priority 2016, published 2019) can be followed below.

Series [1] relates to intraepidermal nerve fibers (IENFs). Briefly: Incidence of intraepidermal nerve fibers (IENFs) in chemotherapy-treated rats. The settings on record: p<0.05.
Series [2] deals with mitochondria in peripheral sensory afferents (PNSAs). Briefly: Mitochondrial ATP production in peripheral sensory afferents after in vivo treatment. Also noted: species or system rat. The settings on record: 0.1 mg/kg/d i.p. concomitant with oxaliplatin.
Description: ATP assays. Saphenous nerves were harvested from rats 25 days after the initiation of chemotherapy treatments, then minced & teased apart as previously described. Saphenous nerve explants were transferred to MiR05 respiratory buffer & baseline ATP samples were taken after 5 min or after 15 min treatment with MRS5980 or vehicle. ADP (1 mM), glutamate (5 mM), succinate (5 mM), maleate (5 mM) were added for 5 min & samples were taken for ATP. ATP levels were measured by a flash luciferin-luciferase assay (Promega Enliten ATP Assay; Promega, Madison, Wis.) & normalized to citrate synthase activity (Sigma, St Louis, Mo.) in explants homogenates.
Series [3] can be described thus: Oxaliplatin-induced mechano-hypersensitivity (paw withdrawal threshold, von Frey). Format: in vivo, rat. The settings on record: 0.1 mg/kg/d i.p. concomitant with oxaliplatin.
Excerpt: Mean±SEM, n=6/group, ANOVA with Bonferroni comparisons. *P<0.05 vs. day 0; #P<0.05 vs. vehicle &†P<0.05 vs. Oxaliplatin.
Series [4] deals with intraepidermal nerve fibers (IENFs). The following applies: rat, in vivo.

For `CNC(=O)[C@@]12C[C@@H]1[C@@H](n1cnc3c(NCc4cccc(Cl)c4)nc(C#Cc4ccc(F)c(F)c4)nc31)[C@H](O)[C@@H]2O` [MRS5698], in series [1] (rats treated with oxaliplatin+MRS5698), the “Incidence of IENFs vs. oxaliplatin alone” value was “significantly more IENFs”. The “Incidence of IENFs vs. paclitaxel alone” value in series [1] (rats treated with paclitaxel+MRS5698) was “significantly more IENFs”. For the same compound, in series [2], the “Mitochondrial ATP production in PNSAs” value is listed as “prevents the deficiencies in mitochondrial ATP production”. The “Development of mechano-hypersensitivity (Paw Withdrawal Threshold)” value in series [3] is recorded as “prevents”.

On to `CC(=O)O[C@H]1C(=O)[C@@]2(C)[C@H]([C@H](OC(=O)c3ccccc3)[C@]3(O)C[C@H](OC(=O)[C@H](O)[C@@H](NC(=O)c4ccccc4)c4ccccc4)C(C)=C1C3(C)C)[C@]1(OC(C)=O)CO[C@@H]1C[C@@H]2O` [paclitaxel], for which the “Incidence of IENFs vs. Naive rats” value in series [4] is “statistically significantly fewer IENFs”.
